The record followed here is patent US20100168079A1 (priority 2008, published 2010).

Structures are written as SMILES.

T1 sequence (P21453 whole entry): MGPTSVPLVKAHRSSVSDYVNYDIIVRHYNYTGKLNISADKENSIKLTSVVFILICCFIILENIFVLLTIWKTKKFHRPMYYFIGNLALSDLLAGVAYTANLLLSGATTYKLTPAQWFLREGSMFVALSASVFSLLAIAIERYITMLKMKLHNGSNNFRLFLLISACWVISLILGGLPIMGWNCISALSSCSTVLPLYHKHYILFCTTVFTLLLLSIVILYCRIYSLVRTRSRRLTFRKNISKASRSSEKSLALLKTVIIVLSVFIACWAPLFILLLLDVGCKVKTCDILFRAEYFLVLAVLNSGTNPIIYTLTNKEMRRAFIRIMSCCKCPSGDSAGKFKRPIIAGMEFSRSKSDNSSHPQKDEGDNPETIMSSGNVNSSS

The test has as its target T1, human S1P1 receptors (Homo sapiens, UniProt P21453).
T1 construct: myc (N); expressed in transfected cells; host or cells: HeLa (human cervix carcinoma, ATCC CCL2), HeLa-S1P1/Gα16 cell clone 1
Briefly: Human S1P1 Receptor Calcium FLIPR Antagonist Assay (HeLa Gα16 S1P1). The settings on record: relative antagonism of Ca2+ signal evoked by probing agonist GNF-AC-1 at EC80; HeLa-S1P1/Gα16 cells. Type of test: cell-based. The protocol:
Human S1P1 Receptor Calcium FLIPR Antagonist Assay
The cells are plated in 384 well black plates (10′000 cells per well). […] After washing, the cells are transferred to the FLIPR. The test compounds are added at different concentrations […]) in HBSS in the presence of 0.1% BSA and changes in fluorescence are recorded (indication of agonism). The probing agonist is added 20-30 minutes afterwards to the wells at a concentration giving 80% of the maximal activity (EC80). After each addition, time points are collected as follows: 20 time points (2 seconds) before the addition of the agonist (Fmin) and 60 time points (1 or 2 seconds) after the addition of the probing agonist. This allows the determination of the maximal fluorescence (Fmax). The ratio (Fmax-Fmin)/Fmin is plotted against the log of the concentration of the test compounds and the IC50 (relative antagonism) is calculated using the XLfit-4 software. […] A concentration-response curve of the probing agonist is determined on each plate in parallel.
As for `COc1ccc(C(C)Nc2cccc(-c3cc(C)c(C(=O)N[C@@H](C)C(=O)O)c(C)c3)c2)cc1Cl` (stereo partly drawn) [Example 1, (S)-2-({3′-[1-(3-Chloro-4-methoxy-phenyl)-ethylamino]-3,5-dimethyl-biphenyl-4-carbonyl}-amino)-propionic acid], the 50% inhibitory concentration (IC50) was 2 nM. Under `CCC(Nc1cccc(-c2cc(C)c(C(=O)N[C@@H](C)C(=O)O)c(C)c2)c1)c1ccc(Cl)c(C)c1` (stereo partly drawn) [Example 5, (S)-2-({3′-[1-(4-Chloro-3-methyl-phenyl)-propylamino]-3,5-dimethyl-biphenyl-4-carbonyl}-amino)-propionic acid] stands 2 nM; under `Cc1cc(-c2cccc(NC(C)c3ccc(Cl)c(F)c3)c2)cc(C)c1C(=O)N[C@@H](C)C(=O)O` (stereo partly drawn) [Example 9, (S)-2-({3′-[1-(4-Chloro-3-fluoro-phenyl)-ethylamino]-3,5-dimethyl-biphenyl-4-carbonyl}-amino)-propionic acid], 3 nM. Under `Cc1cc(-c2cccc(NC(C)c3ccc(Cl)c(Cl)c3)c2)cc(C)c1C(=O)N[C@@H](C)C(=O)O` (some centres unmarked) [Example 10] stands 2 nM; under `Cc1ccc(C(C)Nc2cccc(-c3cc(C)c(C(=O)N[C@@H](C)C(=O)O)c(C)c3)c2)cc1C` (stereo partly drawn) [Example 11, (S)-2-({3′-[1-(3,4-Dimethylphenyl)-ethylamino]-3,5-dimethyl-biphenyl-4-carbonyl}-amino)-propionic acid], 4 nM; under `Cc1cc(C(C)Nc2cccc(-c3cc(C)c(C(=O)N[C@@H](C)C(=O)O)c(C)c3)c2)c(C)cc1Cl` (stereo partly drawn) [Example 13, (S)-2-({3′-[1-(4-Chloro-2,5-dimethyl-phenyl)-ethylamino]-3,5-dimethyl-biphenyl-4-carbonyl}-amino)-propionic acid], 5 nM. Under `Cc1cc(-c2cccc(NC(C)c3ccc(Cl)c(C(F)(F)F)c3)c2)cc(C)c1C(=O)N[C@@H](C)C(=O)O` (some centres unmarked) [Example 14] stands 4 nM; under `COc1cc(C(C)Nc2cccc(-c3cc(C)c(C(=O)N[C@@H](C)C(=O)O)c(C)c3)c2)ccc1F` (stereo partly drawn) [Example 15, (S)-2-({3′-[1-(4-Fluoro-3-methoxy-phenyl)-ethylamino]-3,5-dimethyl-biphenyl-4-carbonyl}-amino)-propionic acid], 2 nM; under `Cc1cc(C(C)Nc2cccc(-c3cc(C)c(C(=O)N[C@@H](C)C(=O)O)c(C)c3)c2)c(F)cc1Cl` (stereo partly drawn) [Example 16, (S)-2-({3′-[1-(4-Chloro-2-fluoro-5-methyl-phenyl)-ethylamino]-3,5-dimethyl-biphenyl-4-carbonyl}-amino)-propionic acid], 2 nM. Turning to `Cc1cc(-c2cccc(NC(C)c3ccc(F)c(OC(F)(F)F)c3)c2)cc(C)c1C(=O)N[C@@H](C)C(=O)O` (stereo partly drawn) [Example 17, (S)-2-({3′-[1-(4-Fluoro-3-trifluoromethoxy-phenyl)-ethylamino]-3,5-dimethyl-biphenyl-4-carbonyl}-amino)-propionic acid], the IC50 was 5 nM. Under `COc1ccc(C(C)Nc2cccc(-c3cc(C)c(C(=O)N[C@@H](C)C(=O)O)c(C)c3)c2)cc1F` (stereo partly drawn) [Example 18, (S)-2-({3′-[1-(3-Fluoro-4-methoxy-phenyl)-ethylamino]-3,5-dimethyl-biphenyl-4-carbonyl}-amino)-propionic acid] stands 4 nM; under `Cc1cc(F)cc(C(C)Nc2cccc(-c3cc(C)c(C(=O)N[C@@H](C)C(=O)O)c(C)c3)c2)c1` (stereo partly drawn) [Example 19, (S)-2-({3′-[1-(3-Fluoro-5-methyl-phenyl)-ethylamino]-3,5-dimethyl-biphenyl-4-carbonyl}-amino)-propionic acid], 2 nM. `Cc1cc(C(C)Nc2cccc(-c3cc(C)c(C(=O)N[C@@H](CO)C(=O)O)c(C)c3)c2)ccc1Cl` (stereo partly drawn) [Example 21, (S)-2-({3′-[1-(4-Chloro-3-methyl-phenyl)-ethylamino]-3,5-dimethyl-biphenyl-4-carbonyl}-amino)-3-hydroxy-propionic acid]: the IC50 was determined as 2 nM. In the case of `CCC(Nc1cccc(-c2cc(C)c(C(=O)NC3(C(=O)O)CC3)c(C)c2)c1)c1ccc(Cl)c(C)c1` (centres unmarked) [Example 27, 1-({3′-[1-(4-Chloro-3-methyl-phenyl)-propylamino]-3,5-dimethyl-biphenyl-4-carbonyl}-amino)-cyclopropanecarboxylic acid], the half-maximal inhibitory concentration (IC50) came to 2 nM. Regarding `Cc1cc(C)cc(C(C)Nc2cccc(-c3cc(C)c(C(=O)N[C@@H](C)C(=O)O)c(C)c3)c2)c1` (stereo partly drawn) [Example 28, (S)-2-({3′-[1-(3,5-Dimethyl-phenyl)-ethylamino]-3,5-dimethyl-biphenyl-4-carbonyl}-amino)-propionic acid], the IC50 is 3 nM. Under `Cc1cc(C(C)Nc2cccc(-c3cc(C)c(C(=O)N[C@@H](C)C(=O)O)c(C)c3)c2)cc(C)c1Cl` (stereo partly drawn) [Example 29, (S)-2-({3′-[1-(4-Chloro-3,5-dimethyl-phenyl)-ethylamino]-3,5-dimethyl-biphenyl-4-carbonyl}-amino)-propionic acid] stands 2 nM; under `COc1ccc(C(C)Nc2cccc(-c3cc(C)c(C(=O)N[C@@H](C)C(=O)O)c(C)c3)c2)cc1C` (stereo partly drawn) [Example 30, (S)-2-({3′-[1-(4-Methoxy-3-methyl-phenyl)-ethylamino]-3,5-dimethyl-biphenyl-4-carbonyl}-amino)-propionic acid], 2 nM. Under `COc1ccc(C(C)Nc2cccc(-c3cc(C)c(C(=O)N[C@@H](C)C(=O)O)c(C)c3)c2)cc1C(F)(F)F` (stereo partly drawn) [Example 33, (S)-2-({3′-[1-(4-Methoxy-3-trifluoromethyl-phenyl)-ethylamino]-3,5-dimethyl-biphenyl-4-carbonyl}-amino)-propionic acid] stands 1 nM. Under `COc1c(F)cc(C(C)Nc2cccc(-c3cc(C)c(C(=O)N[C@@H](C)C(=O)O)c(C)c3)c2)cc1F` (stereo partly drawn) [Example 34, (S)-2-({3′-[1-(3,5-Difluoro-4-methoxy-phenyl)-ethylamino]-3,5-dimethyl-biphenyl-4-carbonyl}-amino)-propionic acid] stands 3 nM; under `COc1ccc(C(C)Nc2cccc(-c3cc(C)c(C(=O)N[C@@H](C)C(=O)O)c(C)c3)c2)c(F)c1` (stereo partly drawn) [Example 35, (S)-2-({3′-[1-(2-Fluoro-4-methoxy-phenyl)-ethylamino]-3,5-dimethyl-biphenyl-4-carbonyl}-amino)-propionic acid], 8 nM; under `COc1c(F)cc(C(C)Nc2cccc(-c3cc(C)c(C(=O)N[C@@H](C)C(=O)O)c(C)c3)c2)cc1Cl` (stereo partly drawn) [Example 36, (S)-2-({3′-[(3-Chloro-5-fluoro-4-methoxy-phenyl)-ethylamino]-3,5-dimethyl-biphenyl-4-carbonyl}-amino)-propionic acid], 2 nM. In the case of `COc1c(C)cc(C(C)Nc2cccc(-c3cc(C)c(C(=O)N[C@@H](C)C(=O)O)c(C)c3)c2)cc1C` (stereo partly drawn) [Example 37, (S)-2-({3′-[1-(4-Methoxy-3,5-dimethyl-phenyl)-ethylamino]-3,5-dimethyl-biphenyl-4-carbonyl}-amino)-propionic acid], the half-maximal inhibitory concentration (IC50) was determined as 2 nM.

Consider `Cc1cc([C@@H](C)Nc2cccc(-c3ccc(C(=O)N[C@@H](C)C(=O)O)c(C)c3)c2)ccc1Cl` [Example 40, (S)-2-({3′-[(R)-1-(4-Chloro-3-methyl-phenyl)-ethylamino]-3-methyl-biphenyl-4-carbonyl}-amino)-propionic acid], for which the IC50 is 2 nM. Consider `CCc1cc(-c2cccc(NC(C)c3ccc(Cl)c(C)c3)c2)ccc1C(=O)N[C@@H](C)C(=O)O` (stereo partly drawn) [Example 42, (S)-2-({3′-[1-(4-Chloro-3-methyl-phenyl)-ethylamino]-3-ethyl-biphenyl-4-carbonyl}-amino)-propionic acid], for which the half-inhibitory concentration (IC50) was 3 nM. Under `CCc1cc(-c2cccc(NC(C)c3ccc(Cl)c(C)c3)c2)ccc1C(=O)N(C)[C@@H](C)C(=O)O` (stereo partly drawn) [Example 43, (S)-2-({3′-[1-(4-Chloro-3-methyl-phenyl)-ethylamino]-3-ethyl-biphenyl-4-carbonyl}-methyl-amino)-propionic acid] stands 3 nM.

With `CCc1cc(-c2cccc(NC(C)c3cc(C)c(Cl)c(C)c3)c2)ccc1C(=O)N(C)[C@@H](C)C(=O)O` (stereo partly drawn) [Example 45, (S)-2-({3′-[1-(4-Chloro-3,5-dimethyl-phenyl)-ethylamino]-3-ethyl-biphenyl-4-carbonyl}-methyl-amino)-propionic acid], the IC50 amounted to 5 nM. Under `Cc1cc(C(C)Nc2cccc(-c3ccc(C(=O)N[C@@H](C)C(=O)O)c(Cl)c3)c2)ccc1Cl` (stereo partly drawn) [Example 46, (S)-2-({3-Chloro-3′-[1-(4-chloro-3-methyl-phenyl)-ethylamino]-biphenyl-4-carbonyl}-amino)-propionic acid] stands 2 nM. Under `Cc1cc(C(C)Nc2cccc(-c3ccc(C(=O)N(C)[C@@H](C)C(=O)O)c(Cl)c3)c2)ccc1Cl` (stereo partly drawn) [Example 47, (S)-2-({3-Chloro-3′-[1-(4-chloro-3-methyl-phenyl)-ethylamino]-biphenyl-4-carbonyl}-methyl-amino)-propionic acid] stands 2 nM; under `Cc1cc(C(C)Nc2cccc(-c3ccc(C(=O)N(C)[C@@H](C)C(=O)O)c(F)c3)c2)ccc1Cl` (stereo partly drawn) [Example 49, (S)-2-({3′-[1-(4-Chloro-3-methyl-phenyl)-ethylamino]-3-fluoro-biphenyl-4-carbonyl}-methyl-amino)-propionic acid], 3 nM.
